Test results: the NIST ThermoML archive (doi:10.1016/j.jct.2011.03.019)
± gives the expanded uncertainty stated by the source.

Conditions: Liquid, Vibrating tube method

CCCC[n+]1cccc(C)c1.F[B-](F)(F)F [1-butyl-3-methylpyridinium tetrafluoroborate]
Conditions | mass density [kg/m3]
283.12 K, 2024 kPa | 1194.21 ± 2.7
283.13 K, 5410 kPa | 1195.69 ± 2.7
283.14 K, 10608 kPa | 1197.94 ± 2.7
283.16 K, 101 kPa | 1192.91 ± 2.6
283.16 K, 20395 kPa | 1202.09 ± 2.7
283.16 K, 29989 kPa | 1206.06 ± 2.8
283.16 K, 40399 kPa | 1210.24 ± 2.8
283.16 K, 50021 kPa | 1214 ± 2.9
283.16 K, 59880 kPa | 1217.75 ± 3
283.16 K, 70001 kPa | 1221.48 ± 3
283.16 K, 80055 kPa | 1225.07 ± 3.1
283.16 K, 89979 kPa | 1228.5 ± 3.1
283.16 K, 99226 kPa | 1231.6 ± 3.2
293.13 K, 2373 kPa | 1187.65 ± 2.6
293.15 K, 101 kPa | 1185.85 ± 2.6
293.15 K, 5192 kPa | 1188.92 ± 2.6
293.15 K, 19915 kPa | 1195.44 ± 2.7
293.15 K, 29975 kPa | 1199.74 ± 2.8
293.15 K, 40033 kPa | 1203.9 ± 2.8
293.15 K, 49990 kPa | 1207.91 ± 2.9
293.15 K, 60026 kPa | 1211.82 ± 2.9
293.15 K, 69993 kPa | 1215.58 ± 3
293.15 K, 90002 kPa | 1222.75 ± 3.1
293.15 K, 99008 kPa | 1225.82 ± 3.2
293.16 K, 79917 kPa | 1219.2 ± 3
293.17 K, 10105 kPa | 1191.13 ± 2.7
298.13 K, 101 kPa | 1182.41 ± 2.6
298.15 K, 1023 kPa | 1183.65 ± 2.6
298.15 K, 5014 kPa | 1185.49 ± 2.6
298.15 K, 10024 kPa | 1187.78 ± 2.7
298.15 K, 19956 kPa | 1192.22 ± 2.7
298.15 K, 29784 kPa | 1196.48 ± 2.8
298.15 K, 39954 kPa | 1200.76 ± 2.8
298.15 K, 49921 kPa | 1204.82 ± 2.9
298.15 K, 59784 kPa | 1208.71 ± 2.9
298.15 K, 69521 kPa | 1212.43 ± 3
298.15 K, 79326 kPa | 1216.05 ± 3
298.15 K, 89784 kPa | 1219.77 ± 3.1
298.15 K, 99965 kPa | 1223.26 ± 3.2
313.13 K, 101 kPa | 1172.19 ± 2.6
313.13 K, 10051 kPa | 1177.79 ± 2.6
313.15 K, 2471 kPa | 1174.15 ± 2.6
313.15 K, 5142 kPa | 1175.44 ± 2.6
313.15 K, 39901 kPa | 1191.32 ± 2.8
313.15 K, 50020 kPa | 1195.6 ± 2.8
313.15 K, 59990 kPa | 1199.68 ± 2.9
313.15 K, 70046 kPa | 1203.63 ± 2.9
313.15 K, 79830 kPa | 1207.34 ± 3
313.16 K, 30021 kPa | 1186.99 ± 2.7
313.16 K, 89989 kPa | 1211.04 ± 3
313.17 K, 19949 kPa | 1182.42 ± 2.7
313.17 K, 99194 kPa | 1214.26 ± 3.1
323.14 K, 101 kPa | 1165.48 ± 2.6
333.13 K, 2503 kPa | 1160.47 ± 2.6
333.14 K, 101 kPa | 1158.81 ± 2.5
333.14 K, 39760 kPa | 1178.53 ± 2.7
333.15 K, 20056 kPa | 1169.28 ± 2.6
333.15 K, 29979 kPa | 1174.02 ± 2.7
333.15 K, 79731 kPa | 1195.25 ± 2.9
333.15 K, 89986 kPa | 1199.09 ± 3
333.15 K, 99773 kPa | 1202.59 ± 3
333.16 K, 5448 kPa | 1161.99 ± 2.6
333.16 K, 50021 kPa | 1183.09 ± 2.8
333.16 K, 70003 kPa | 1191.43 ± 2.9
333.17 K, 10715 kPa | 1164.66 ± 2.6
333.17 K, 60243 kPa | 1187.44 ± 2.8
343.14 K, 101 kPa | 1152.1 ± 2.5
353.12 K, 6509 kPa | 1148.81 ± 2.5
353.13 K, 8955 kPa | 1150.12 ± 2.5
353.14 K, 2790 kPa | 1146.79 ± 2.5
353.15 K, 101 kPa | 1145.3 ± 2.5
353.15 K, 90011 kPa | 1186.9 ± 2.9
353.15 K, 99259 kPa | 1190.28 ± 3
353.16 K, 29979 kPa | 1160.91 ± 2.6
353.16 K, 39909 kPa | 1165.7 ± 2.7
353.16 K, 50013 kPa | 1170.38 ± 2.7
353.16 K, 60153 kPa | 1174.86 ± 2.8
353.16 K, 69979 kPa | 1179.02 ± 2.8
353.16 K, 80426 kPa | 1183.23 ± 2.9
353.17 K, 21342 kPa | 1156.58 ± 2.6
363.14 K, 101 kPa | 1138.4 ± 2.5
373.12 K, 60192 kPa | 1162.13 ± 2.7
373.13 K, 50003 kPa | 1157.47 ± 2.7
373.14 K, 39996 kPa | 1152.66 ± 2.6
373.14 K, 70039 kPa | 1166.42 ± 2.8
373.14 K, 99035 kPa | 1177.8 ± 2.9
373.15 K, 5373 kPa | 1134.29 ± 2.5
373.15 K, 29979 kPa | 1147.62 ± 2.6
373.15 K, 90014 kPa | 1174.46 ± 2.9
373.16 K, 2495 kPa | 1132.64 ± 2.5
373.16 K, 10198 kPa | 1137.01 ± 2.5
373.16 K, 20336 kPa | 1142.55 ± 2.6
373.16 K, 80221 kPa | 1170.63 ± 2.8
393.15 K, 10222 kPa | 1123.08 ± 2.5
393.15 K, 20024 kPa | 1128.69 ± 2.5
393.15 K, 30013 kPa | 1134.16 ± 2.5
393.15 K, 89993 kPa | 1161.76 ± 2.8
393.15 K, 99831 kPa | 1165.43 ± 2.9
393.16 K, 40133 kPa | 1139.44 ± 2.6
393.16 K, 49970 kPa | 1144.34 ± 2.6
393.16 K, 60110 kPa | 1149.13 ± 2.7
393.16 K, 70029 kPa | 1153.57 ± 2.7
393.16 K, 80159 kPa | 1157.85 ± 2.8
393.17 K, 2485 kPa | 1118.49 ± 2.5
393.17 K, 5300 kPa | 1120.18 ± 2.5
